Data reported in patent publication US11136320B2, “Fused ring derivative used as FGFR4 inhibitor” (JACOBIO PHARMACEUTICALS CO., LTD., priority 2019, dated 2021).

Tests used:
[1] = tested on: Hepatoma cell Hep3B (high expression of FGFR4 and FGF19); assay: Hepatoma cell proliferation inhibition experiment (MTS method); assay type: cell-based; conditions: Homo sapiens, Hep3B; 120 h incubation; read-out: Hep3B(IC50 μM)
Text: In this experiment, the MTS method was used to test the inhibitory effect of the compounds on the proliferation of Hepatoma cell Hep3B (high expression of FGFR4 and FGF19), and the half inhibitory concentration IC50 of the compounds to Hep3B was obtained. The Hep3B cell line was purchased from ATCC, and the complete culture medium of the Hep3B cell line was MEM+10% FBS+1% PS. MEM cell culture medium, fetal bovine serum, and trypsin were purchased from Gibco, cell culture flasks were purchased from Greiner, and disposable Cell Counting Plate and Taittinger Blue Solution were purchased from Bio-Rad.
(1) 100 μl Hepatoma cell Hep3B suspension was seeded in a 96-well cell culture plate, and the density of each well was 2.0×10^4 cells/ml.
(3) A mixture of MTS (3-(4,5-dimethylthiazol-2-yl)-5-(3-carboxymethoxyphenyl)-2-(4-sulfophenyl)-2H-tetrazolium)/PMS (phenazine methosulfate) was added into each well for coloration, and MTS/PMS in the mixture was at a ratio of 20:1 (ml:ml). 30 μl of the mixture was added into each well of the culture plate above mentioned in step (2), then the culture plate was incubated for 3 h in the incubator.
(5) The inhibition rate was calculated by the […];
(6) According to the inhibition rate of the different concentrations, the IC50 values of the compounds were obtained by curve fitting.

Hep3B = assay: Pharmacodynamic in vivo, Hep3B model tumor growth inhibition; parameters: species or system NOD-SCID mice; conditions: 60 mg/kg QD, gavage
Text: The Hep3B cell line was purchased from ATCC; MEM cell culture medium, fetal bovine serum, and trypsin were purchased from Gibco; cell culture flasks were purchased from Greiner; and disposable Cell Counting Plate and taittinger Blue Solution Purchased from Bio-Rad. The disposable sterile syringe was purchased from Changzhou Jinlong Medical Plastic Instrument Co., Ltd, eye surgical scissors and eye surgical forceps were purchased from Shanghai Medical Instrument (Group) Co., Ltd. Surgical Instrument Factory, and 6-8 week old female NOD-SCID mice were purchased from Vitalivar.
a. One strain of Hep3B cells was taken out from the cell bank and MEM medium (MEM+10% FBS+1% PS) was used to recover the cells. The resuscitated cells were placed in a cell culture flask (the wall the flask was marked with the cell type, date, cultivator's name), and the cell culture flask was placed in a CO2 incubator (the temperature of the incubator was 37° C. and the CO2 concentration of the incubator was 5%);
b. When the cells covered about 90% of the bottom of the culture flask, passage was conducted. the cells were continued to cultivate in a CO2 incubator after passage. The above process was repeated until the number of the cell satisfied the requirements of pharmacodynamic in vivo;
c. The cultured cells were collected and counted using a BIO-Rad TC20 cell counter. According to the counting results, the cultured cells were resuspended with PBS and matrix gel (1:1) to obtain a cell suspension (density 5×10^7/ml), and the cell suspension was placed in an ice box for later use.
a. The cells were mixed well before seeding, and 0.5 ml of cell suspension was taken with a 1 ml syringe and bubbles in the cell suspension were removed. The syringe with the cell suspension was place on an ice pack for later use.
b. The NOD-SCID mice were set with the left hand, and the skin on the right back of the mice was disinfected with 75% alcohol. The inoculation was beginning after 30 seconds.
c. During inoculation, 1 mL syringe was on the right hand, and the cell suspension of Hep3B was inoculated subcutaneously into the right shoulder of the right back of the mouse at 0.1 mL/mouse. At inoculation interval, the syringe was placed on an ice pack and the mice were inoculated sequentially.
d. According to the tumor growth, the tumor was measured and the tumor size was calculated on the 12-15 days after inoculation.
Tumor volume calculation: tumor volume (mm^3)=length (mm)×width (mm)×width (mm)/2
e. When the tumors grew to an average volume of 100-150 mm^3, the mice were randomly divided into two groups according to tumor size and the weight of the mouse. […]
f. […] Tumors were measured and the mice were weighed twice a week after administration. […]

PK analysis of rats = assay type: in vivo; conditions: rat, plasma, po, SD rats, p.o. (10 mg/kg)
Method: In the present invention, the pharmacokinetics experiment of the compounds in rats was performed using the SD rats (Vitolihua).
(1) Mode of administration: single gavage administration and intravenous injection administration.
(2) Dosage: 10 mg/kg in the gavage administration, 3 mg/kg in the intravenous injection administration.
Gavage administration: before administration, 15 min, 30 min, 1 h, 2 h, 4 h, 6 h, 8 h, 24 h; […]
(§1) (4) Sample processing: 200 μL of orbital blood was collected at each sampling time point. After anticoagulation with heparin, the blood was centrifuged at 5500 rpm for 10 min, and 60 μL of the supernatant was taken and put into the refrigerator at −80° C. for waiting for testing.
Samples obtained after administration of Compound 1 were tested using 4000 LC-MS/MS analyzer, wherein, the chromatographic separation conditions for testing were:
Samples obtained after administration of Compound 7 were tested using 4000 LC-MS/MS analyzer, wherein, the chromatographic separation conditions for testing were:
Samples obtained after administration of Compound 16 were tested using 4000 LC-MS/MS analyzer, wherein, the chromatographic separation conditions for testing were: […]

[2] = PK/PD of NOD-SCID mouse (drug concentration in blood and in tumors); assay type: in vivo; conditions: NOD-SCID, mouse, po, 50 mg/kg, p.o. (50 mg/kg); for AUC(0-t): read-out: AUC0-6 h; for concentration at 4 h / concentration at 6 h: tumor
Method: This experiment conducted when the pharmacological experiment in vivo was performed by gavage administration, wherein, the blood samples and tumor samples were taken at different time points to detect drug concentration in blood and drug concentrations in tumors.
(1) Mode of administration: gavage administration;
(2) Dosage: 50 mg/kg in the gavage administration;
Three mice were sampled at each sampling point;
as §1, with “Blood sample collection:” for “Sample processing:”, “at” for “at each”, “point for each blood sample.” for “point.”, “mins.” for “min, and”, “put it” for “put”
Tumour sample collection: 200-300 mg of each tumor tissue was taken. The tumor weight was marked, quickly freezed in liquid nitrogen and placed into a refrigerator at −80° C. for waiting for testing.
Tumour sample processing: pure water was added into the tumor sample according to a ratio of […] between the weight of the tumor sample and the volume of pure water and then it was homogenized. The homogenate was stored at −90° C. to −60° C. until the sample was analyzed. After 5 μL of acetonitrile/water (v/v=1:1) was added into 50 μL of tumor sample homogenate, 200 μL of acetonitrile (containing Dexamethasone 100 ng/ml as internal standard, or containing Verapamil 2 ng/ml as internal standard) was added. After protein precipitation, the resulting mixture was vortexed for 2 mins at 4° C. with 4600 g, and then centrifuged for 15 mins to obtain the supernatant. 100 μL of the supernatant was taken and added into 200 μL of deionized water. 5500 LC/MS/MS analyser was used for sample injection and analysis, after vortexing for homogeneity. The conditions for chromatographic separation and mass spectrometric analysis were as follows: […]

IC50 [1]: 0.024 µM | AUC(0-t) (PK analysis of rats; read-out: Curve area AUC0-24 h): 1590 ng·h/mL | Cmax (PK analysis of rats; read-out: Drug concentration in blood Cmax): 350 ng/mL | AUC(0-inf) ([2]; plasma, Hep3B model): 29100 ng·h/mL | Cmax ([2]; plasma, Hep3B model): 6200 ng/mL | Tmax ([2]; plasma, Hep3B model): 1 h | half-life ([2]; plasma, Hep3B model): 3.13 h | AUC(0-t) ([2]; plasma, Hep3B model): 20200 ng·h/mL | Cmax ([2]; plasma, SNU878 model): 5430 ng/mL | Tmax ([2]; plasma, SNU878 model): 4 h | AUC(0-t) ([2]; plasma, SNU878 model): 20400 ng·h/mL | concentration at 4 h ([2]; Hep3B model): 64.4 ng/g | concentration at 6 h ([2]; Hep3B model): 44.1 ng/g | concentration at 4 h ([2]; SNU878 model): 3560 ng/g | concentration at 6 h ([2]; SNU878 model): 1030 ng/g
SMILES: COCCNc1cc(NC(=O)N2CCCc3cc(CN4CCN(C)CC4=O)c(C=O)nc32)ncc1C#N [Reference compound, roblitinib, reference compound]
TGI % (Hep3B): 97.7%
